From the NIST ThermoML archive (doi:10.1016/j.fluid.2011.11.005)

Test: excess molar enthalpy (molar enthalpy of mixing); xn = mol fraction of the nth substance listed
Conditions: 101 kPa, Liquid, Flow calorimetry

CC(C)CC(C)(C)C [2,2,4-trimethylpentane] + CCCCO
313.15 K
Conditions	excess molar enthalpy [kcal/mol]
x1 = 0.0502	0.0251
x1 = 0.1001	0.0487
x1 = 0.1505	0.072
x1 = 0.2003	0.0939
x1 = 0.2505	0.115
x1 = 0.3001	0.134
x1 = 0.3504	0.152
x1 = 0.4001	0.167
x1 = 0.4499	0.181
x1 = 0.5008	0.192
x1 = 0.5501	0.2
x1 = 0.5999	0.205
x1 = 0.6498	0.207
x1 = 0.7	0.206
x1 = 0.75	0.201
x1 = 0.7996	0.193
x1 = 0.8502	0.179
x1 = 0.9001	0.159
x1 = 0.9506	0.125

CCCCO [butan-1-ol] + Cc1ccccc1
excess molar enthalpy [kcal/mol]
Conditions	298.15 K	313.15 K
x2 = 0.0504	0.0245	0.0341
x2 = 0.0998	0.0498	–
x2 = 0.0999	–	0.0685
x2 = 0.1501	0.0753	0.102
x2 = 0.2011	0.101	0.136
x2 = 0.251	0.125	–
x2 = 0.2512	–	0.166
x2 = 0.2999	0.148	–
x2 = 0.3	–	0.195
x2 = 0.3495	0.169	–
x2 = 0.3496	–	0.221
x2 = 0.3998	0.189	–
x2 = 0.4	–	0.243
x2 = 0.4509	0.207	–
x2 = 0.4511	–	0.264
x2 = 0.5009	0.221	–
x2 = 0.501	–	0.279
x2 = 0.5495	0.231	–
x2 = 0.5496	–	0.291
x2 = 0.6009	0.239	–
x2 = 0.601	–	0.299
x2 = 0.6509	0.242	–
x2 = 0.6511	–	0.302
x2 = 0.6996	0.24	–
x2 = 0.6998	–	0.298
x2 = 0.7512	0.234	–
x2 = 0.7513	–	0.29
x2 = 0.7992	0.222	0.274
x2 = 0.85	0.203	0.249
x2 = 0.8993	0.174	0.21
x2 = 0.9493	0.124	0.143

C1CCCCC1 [cyclohexane] + CCCCO
313.15 K
Conditions	excess molar enthalpy [kcal/mol]
x1 = 0.0505	0.0234
x1 = 0.1001	0.0459
x1 = 0.1505	0.0679
x1 = 0.2	0.0885
x1 = 0.2505	0.108
x1 = 0.2999	0.126
x1 = 0.3501	0.143
x1 = 0.4003	0.158
x1 = 0.4504	0.171
x1 = 0.5003	0.182
x1 = 0.55	0.19
x1 = 0.5995	0.195
x1 = 0.6499	0.197
x1 = 0.7	0.194
x1 = 0.7499	0.188
x1 = 0.7995	0.178
x1 = 0.8499	0.163
x1 = 0.8999	0.142
x1 = 0.9496	0.109

C=CCCCC [hex-1-ene] + CCCCO
excess molar enthalpy [kcal/mol]
Conditions	298.15 K	313.15 K
x1 = 0.05	0.0104	0.0188
x1 = 0.1001	–	0.0398
x1 = 0.1002	0.0234	–
x1 = 0.1505	–	0.0602
x1 = 0.1506	0.0372	–
x1 = 0.2002	–	0.0812
x1 = 0.2003	0.0527	–
x1 = 0.2499	–	0.102
x1 = 0.25	0.0676	–
x1 = 0.3004	–	0.121
x1 = 0.3005	0.0829	–
x1 = 0.3498	–	0.141
x1 = 0.35	0.0967	–
x1 = 0.4	–	0.158
x1 = 0.4001	0.11	–
x1 = 0.4498	–	0.174
x1 = 0.4499	0.123	–
x1 = 0.5001	–	0.188
x1 = 0.5003	0.134	–
x1 = 0.5501	–	0.198
x1 = 0.5503	0.143	–
x1 = 0.5995	–	0.206
x1 = 0.5996	0.149	–
x1 = 0.6504	–	0.21
x1 = 0.6505	0.154	–
x1 = 0.7005	–	0.211
x1 = 0.7006	0.155	–
x1 = 0.7498	–	0.207
x1 = 0.7499	0.153	–
x1 = 0.8005	–	0.2
x1 = 0.8006	0.147	–
x1 = 0.8503	0.138	0.187
x1 = 0.9002	0.123	0.166
x1 = 0.9501	0.0969	0.127

C=CCCCC [hex-1-ene] + CCCCOCCCC
excess molar enthalpy [kcal/mol]
Conditions	298.15 K	313.15 K
x2 = 0.0503	-0.000741	-0.001
x2 = 0.1001	-0.00139	–
x2 = 0.15	–	-0.00296
x2 = 0.1501	-0.00258	–
x2 = 0.2	-0.0033	-0.00382
x2 = 0.25	-0.00402	-0.00447
x2 = 0.2997	–	-0.00497
x2 = 0.2998	-0.00452	–
x2 = 0.3502	-0.00488	–
x2 = 0.3503	–	-0.0054
x2 = 0.3994	-0.00519	–
x2 = 0.3995	–	-0.00566
x2 = 0.4502	-0.00533	–
x2 = 0.4503	–	-0.00581
x2 = 0.4995	-0.00543	–
x2 = 0.4997	–	-0.00586
x2 = 0.5494	-0.00533	–
x2 = 0.5495	–	-0.00578
x2 = 0.5996	-0.00511	–
x2 = 0.5997	–	-0.00557
x2 = 0.6491	-0.0048	–
x2 = 0.6493	–	-0.00521
x2 = 0.7001	-0.00437	–
x2 = 0.7002	–	-0.00468
x2 = 0.7491	-0.00382	–
x2 = 0.7492	–	-0.00425
x2 = 0.7995	-0.00296	–
x2 = 0.7996	–	-0.00361
x2 = 0.8501	-0.00232	-0.00284
x2 = 0.8996	-0.00155	-0.00203
x2 = 0.9504	-0.000717	-0.00108

CC1CCCCC1 [methylcyclohexane] + CCCCO
excess molar enthalpy [kcal/mol]
Conditions	298.15 K	313.15 K
x1 = 0.0498	0.0151	0.0212
x1 = 0.1	0.0301	0.0424
x1 = 0.1505	0.0449	0.0629
x1 = 0.2005	0.0588	0.0826
x1 = 0.2506	0.0725	–
x1 = 0.2507	–	0.101
x1 = 0.3	0.0852	0.119
x1 = 0.3502	0.0974	0.135
x1 = 0.4002	0.109	0.15
x1 = 0.45	–	0.163
x1 = 0.4501	0.119	–
x1 = 0.5006	–	0.174
x1 = 0.5007	0.127	–
x1 = 0.5497	0.134	0.182
x1 = 0.6004	0.138	0.188
x1 = 0.6505	0.14	0.19
x1 = 0.6999	0.14	–
x1 = 0.7	–	0.189
x1 = 0.7498	0.136	0.184
x1 = 0.7999	0.129	–
x1 = 0.8	–	0.176
x1 = 0.8504	0.118	0.162
x1 = 0.8997	0.104	0.144
x1 = 0.9505	0.0814	0.112

CC1CCCCC1 [methylcyclohexane] + CCCCOCCCC
excess molar enthalpy [kcal/mol]
Conditions	298.15 K	313.15 K
x2 = 0.0497	0.0055	0.00497
x2 = 0.1003	0.0103	0.00908
x2 = 0.1501	0.0137	0.0126
x2 = 0.1997	0.0165	–
x2 = 0.1998	–	0.0153
x2 = 0.2501	0.0189	0.0175
x2 = 0.3002	0.0207	0.0193
x2 = 0.3499	0.0218	–
x2 = 0.35	–	0.0203
x2 = 0.3993	0.0225	–
x2 = 0.3994	–	0.0211
x2 = 0.45	0.0228	–
x2 = 0.4501	–	0.0215
x2 = 0.4993	0.0226	0.0213
x2 = 0.5499	0.022	–
x2 = 0.55	–	0.0207
x2 = 0.5999	0.021	–
x2 = 0.6	–	0.0197
x2 = 0.6491	0.0196	–
x2 = 0.6492	–	0.0184
x2 = 0.6997	0.0177	0.0168
x2 = 0.7493	0.0156	0.0147
x2 = 0.8002	0.0131	0.0123
x2 = 0.8501	0.0103	0.00966
x2 = 0.9001	0.00707	0.00674
x2 = 0.95	0.00356	–
x2 = 0.9501	–	0.00339
